Test [1] addresses CYP2D6 (Homo sapiens, UniProt P10635). The experiment in a line: CYP2D6 inhibition (fluorescent substrate AMMC). The format is in vitro ADME. The settings on record: read-out: Cyp IC50 2D6. A digest of the protocol: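 Test compounds, 10-point 1:1 serial dilutions in NADPH-regenerating cofactor mix, were preincubated 10 min at 37° C before recombinant enzyme and fluorogenic substrate reactions at 37° C (CYP1A2 15 min; CYP2C9 45 min; CYP2C19, 2D6 30 min). Product fluorescence was read at 409 ex with 460 em (1A2, 2C19) or 530 em (2C9, 2D6), and IC50 fitted from signal versus concentration.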

Test [2] has as its target c-Kit kinase (Homo sapiens, UniProt P10721). The experiment in a line: c-Kit kinase biochemical activity assay (AlphaScreen, biotin-(E4Y)10 phosphorylation). To be noted: 100 μM ATP; read-out: Biochemical Inhibition IC50 Kit. A digest of the protocol: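 Phosphorylation of 30 nM biotin-(E4Y)10 by c-Kit (0.75 ng per reaction) with 100 µM ATP in HEPES pH 7.5 buffer with Mg2+/Mn2+, 5% DMSO, 1 h at room temperature; 8-point 1:2 compound dilutions. AlphaScreen detection with streptavidin donor and PY20 acceptor beads after EDTA stop. IC50 from signal versus concentration.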

Test [3] addresses CYP3A4(BQ) (Homo sapiens, UniProt P08684). The experiment in a line: CYP3A4(BQ) inhibition. It is filed as in vitro ADME. To be noted: CYP3A4, substrate BQ; read-out: Cyp IC50 3A4(BQ). A digest of the protocol:
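Inhibition of human CYP3A4 (BQ substrate) was measured by fluorescence, since blocking metabolism of a known substrate lowers the fluorescent product signal. Compounds dissolved in DMSO at 100 mM were diluted into acetonitrile and then into NADPH regeneration cofactor mix, serially diluted 1:1 across 10 points, and preincubated in 384 well plates for 10 minutes at 37° C.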

Consider ten compounds from patent US8901118B2, “Compounds and methods for kinase modulation, and indications therefor” (Plexxikon Inc., priority 2010, dated 2014).

Structures are written as SMILES.

CYP2D6, sequence (P10635 whole entry): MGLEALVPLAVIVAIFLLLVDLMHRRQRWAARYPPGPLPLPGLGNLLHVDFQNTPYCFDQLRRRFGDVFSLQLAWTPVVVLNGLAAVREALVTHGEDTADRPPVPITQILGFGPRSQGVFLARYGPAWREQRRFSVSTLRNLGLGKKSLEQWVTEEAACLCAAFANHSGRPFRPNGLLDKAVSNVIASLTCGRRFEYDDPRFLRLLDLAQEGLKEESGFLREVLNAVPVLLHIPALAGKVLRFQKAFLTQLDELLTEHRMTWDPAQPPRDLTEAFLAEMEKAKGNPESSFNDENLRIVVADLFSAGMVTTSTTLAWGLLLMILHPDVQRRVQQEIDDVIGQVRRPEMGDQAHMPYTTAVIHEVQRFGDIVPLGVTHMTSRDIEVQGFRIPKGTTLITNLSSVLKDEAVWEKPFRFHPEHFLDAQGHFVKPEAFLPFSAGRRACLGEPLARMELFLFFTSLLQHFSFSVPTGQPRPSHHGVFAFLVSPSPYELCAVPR
CYP3A4(BQ), sequence (P08684 whole entry): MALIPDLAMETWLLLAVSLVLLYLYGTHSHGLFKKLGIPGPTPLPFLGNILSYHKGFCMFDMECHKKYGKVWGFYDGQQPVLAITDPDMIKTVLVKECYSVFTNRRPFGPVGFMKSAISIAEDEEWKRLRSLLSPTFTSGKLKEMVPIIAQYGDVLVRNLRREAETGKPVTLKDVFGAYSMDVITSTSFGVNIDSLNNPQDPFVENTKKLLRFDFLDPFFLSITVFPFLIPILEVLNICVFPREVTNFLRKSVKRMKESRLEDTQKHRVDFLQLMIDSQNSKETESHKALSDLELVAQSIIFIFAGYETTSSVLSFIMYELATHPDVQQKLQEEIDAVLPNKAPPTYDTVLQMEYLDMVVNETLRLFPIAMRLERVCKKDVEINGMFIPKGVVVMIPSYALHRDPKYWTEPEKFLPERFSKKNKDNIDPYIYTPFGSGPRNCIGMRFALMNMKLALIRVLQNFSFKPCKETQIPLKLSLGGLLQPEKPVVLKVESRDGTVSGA
c-Kit kinase, sequence (P10721 26-976): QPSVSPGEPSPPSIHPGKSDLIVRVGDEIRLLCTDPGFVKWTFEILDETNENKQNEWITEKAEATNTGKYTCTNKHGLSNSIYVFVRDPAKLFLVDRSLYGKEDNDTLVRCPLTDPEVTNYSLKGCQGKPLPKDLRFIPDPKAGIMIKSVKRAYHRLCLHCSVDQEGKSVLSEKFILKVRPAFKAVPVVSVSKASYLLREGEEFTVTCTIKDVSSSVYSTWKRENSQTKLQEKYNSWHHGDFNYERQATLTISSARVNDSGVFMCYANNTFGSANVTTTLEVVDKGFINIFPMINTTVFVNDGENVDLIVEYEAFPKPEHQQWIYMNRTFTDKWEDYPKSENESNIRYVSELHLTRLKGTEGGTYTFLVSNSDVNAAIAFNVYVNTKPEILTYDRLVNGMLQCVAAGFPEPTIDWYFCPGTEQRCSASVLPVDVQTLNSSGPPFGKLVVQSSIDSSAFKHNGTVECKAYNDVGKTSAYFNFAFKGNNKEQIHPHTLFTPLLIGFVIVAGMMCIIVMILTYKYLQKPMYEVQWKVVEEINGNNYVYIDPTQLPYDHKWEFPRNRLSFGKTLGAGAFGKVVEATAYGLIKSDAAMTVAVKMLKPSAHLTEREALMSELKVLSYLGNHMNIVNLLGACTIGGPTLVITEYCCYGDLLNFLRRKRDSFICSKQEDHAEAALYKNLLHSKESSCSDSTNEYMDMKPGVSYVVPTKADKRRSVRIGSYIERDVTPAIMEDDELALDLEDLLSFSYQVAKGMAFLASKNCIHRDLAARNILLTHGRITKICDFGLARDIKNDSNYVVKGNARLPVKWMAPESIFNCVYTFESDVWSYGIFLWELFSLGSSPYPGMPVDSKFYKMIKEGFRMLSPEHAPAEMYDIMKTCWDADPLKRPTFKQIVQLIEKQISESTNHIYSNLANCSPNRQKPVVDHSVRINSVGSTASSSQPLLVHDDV

For the compound `CNc1ncnc2[nH]cc(C(=O)c3ccc(Nc4ccc(C)nc4)nc3F)c12` [Compound P-4115, [2-fluoro-6-[(6-methyl-3-pyridyl)amino]-3-pyridyl]-[4-(methylamino)-7H-pyrrolo[2,3-d]pyrimidin-5-yl]methanone], the IC50 in test [1] was under 5 µM; in test [2], under 0.1 µM; in test [3], over 10 µM.
In the case of `CCc1ccc(Nc2ccc(C(=O)c3c[nH]c4ncnc(NCC5CC5)c34)c(F)n2)cn1` [Compound P-4118, [4-(cyclopropylmethylamino)-7H-pyrrolo[2,3-d]pyrimidin-5-yl]-[6-[(6-ethyl-3-pyridyl)amino]-2-fluoro-3-pyridyl]methanone], the IC50 in test [1] was over 10 µM; in test [2] it was under 0.1 µM; in test [3], over 10 µM.
Take `CCN1CCC(Nc2ncnc3[nH]cc(C(=O)c4ccc(Nc5ccc(OC)nc5)nc4F)c23)CC1` [Compound P-4074, [4-[(1-ethyl-4-piperidyl)amino]-7H-pyrrolo[2,3-d]pyrimidin-5-yl]-[2-fluoro-6-[(6-methoxy-3-pyridyl)amino]-3-pyridyl]methanone]: the IC50 was over 10 µM in test [1], under 1 µM in test [2] and over 10 µM in test [3].
For `CCc1ccc(Nc2ccc(C(=O)c3c[nH]c4ncnc(NCCCOC)c34)c(F)n2)cn1` [Compound P-4098, [6-[(6-ethyl-3-pyridyl)amino]-2-fluoro-3-pyridyl]-[4-(3-methoxypropylamino)-7H-pyrrolo[2,3-d]pyrimidin-5-yl]methanone], the values for the IC50 in test [1], in test [2] and in test [3] were under 5 µM, under 0.1 µM and over 10 µM, respectively.
Regarding `COc1ccc(Nc2ccc(C(=O)c3c[nH]c4ncnc(N5CCCCC5)c34)c(F)n2)cn1` [Compound P-4069, [2-fluoro-6-[(6-methoxy-3-pyridyl)amino]-3-pyridyl]-[4-(1-piperidyl)-7H-pyrrolo[2,3-d]pyrimidin-5-yl]methanone], the IC50 in test [1] was over 10 µM; in test [2] it was over 1 µM; in test [3], over 10 µM.
For the compound `CCc1ccc(Nc2ccc(C(=O)c3c[nH]c4ncnc(NCCOC)c34)c(F)n2)cn1` [Compound P-4119, [6-[(6-ethyl-3-pyridyl)amino]-2-fluoro-3-pyridyl]-[4-(2-methoxyethylamino)-7H-pyrrolo[2,3-d]pyrimidin-5-yl]methanone], the results for the IC50 in test [1], in test [2] and in test [3] were over 10 µM, under 0.01 µM and over 10 µM, respectively.
In the case of `CCNc1ncnc2[nH]cc(C(=O)c3ccc(Nc4ccc(C5CC5)nc4)nc3F)c12` [Compound P-4060, [6-[(6-cyclopropyl-3-pyridyl)amino]-2-fluoro-3-pyridyl]-[4-(ethylamino)-7H-pyrrolo[2,3-d]pyrimidin-5-yl]methanone], the IC50 in test [1] was over 10 µM; in test [2], under 0.1 µM; in test [3], over 10 µM.
Consider `CCCNc1ncnc2[nH]cc(C(=O)c3ccc(Nc4ccc(C)nc4)nc3F)c12` [Compound P-4114, [2-fluoro-6-[(6-methyl-3-pyridyl)amino]-3-pyridyl]-[4-(propylamino)-7H-pyrrolo[2,3-d]pyrimidin-5-yl]methanone], for which the IC50 was over 10 µM in test [1], under 0.1 µM in test [2] and over 10 µM in test [3].
As for `O=C(c1ccc(NC2CCC(F)(F)CC2)nc1F)c1c[nH]c2ncnc(NCC(F)(F)F)c12` [Compound P-4061, [6-[(4,4-difluorocyclohexyl)amino]-2-fluoro-3-pyridyl]-[4-(2,2,2-trifluoroethylamino)-7H-pyrrolo[2,3-d]pyrimidin-5-yl]methanone], the IC50 in test [1] is over 10 µM; in test [2] it was over 1 µM; in test [3] it was over 10 µM.
For the compound `CNc1ncnc2[nH]cc(C(=O)c3ccc(NC4CCCCC4)nc3Cl)c12` [Compound P-4110, [2-chloro-6-(cyclohexylamino)-3-pyridyl]-[4-(methylamino)-7H-pyrrolo[2,3-d]pyrimidin-5-yl]methanone], the IC50 is under 5 µM in test [1], under 1 µM in test [2] and over 10 µM in test [3].
